Columns and labels:
[1] = test system: wild type C57BL/6 mice treated with LPS; assay: LPS/D-galactosamine liver injury with adenosine agonist; format: in vivo, mouse
Experimental: FIGS. 14A-14F illustrate increase in serum ALT and changes in liver gene expression in mice treated with LPS in the presence or absence of adenosine agonist. Wild type C57BL/6 mice were injected intraperitoneally with LPS (1 μg/mouse). 16 hours later mice received NECA (2.5 mg kg^−1 body weight) and D-galactosamine (500 mg kg^−1) by IP for 2 hours following liver tissue and serum collection. Serum ALT was determined (FIG. 14A), and the gene expression of Il1β (FIG. 14B), Il6 (FIG. 14C), Hif1α (FIG. 14D), Nlrp3 (FIG. 14E), and tnfα (FIG. 14F) was quantified by real-time PCR using each specific gene primer set as listed. Data are expressed as the mean±SD from 6 mice in each treatment group. *p<0.05 determined by Student's t-test.
The results recited herein show a requirement for adenosine signaling via the A2A receptor for maximal production of IL-1β by macrophages in vitro. With tissue inflammation and injury extracellular adenosine levels are known to increase by a variety of means from the basal levels below 1 μM to levels up to […]. It was tested whether A2A receptor driven inflammasome activity was relevant in vivo; two models of liver injury was used: one acute LPS driven model where liver injury was assessed in 6 hours after LPS, and a second model of sterile injury by a toxic metabolic insult to the liver by thioacetamide (TAA) in which injury was examined at days 1, 2 and 7. A2AR-cKO mice that specifically delete Adora2a gene in macrophages were used. Liver immune populations were intact in these mice (FIG. 13). […] To test the effect of increasing adenosine signaling in vivo, wild-type mice were treated with LPS in the presence or absence of the adenosine agonist NECA.

[2] = test system: HRE promoter luciferase construct in THP-1 cells; assay: HRE-promoter luciferase reporter assay in THP-1 cells; format: cell-based, human; conditions: LPS/PMA primed 16 hours, treatment over 8 hours
Source text: FIGS. 4A-4H illustrate the finding that adenosine mediates increase in pro-IL-1β via a HIF-1α-dependent pathway. FIG. 4A: Consensus NFκB and HRE binding sites in the IL-1β promoter. FIG. 4B: LPS primed PECs obtained from A2AR-cKO and controls were stimulated with or without NECA or CGS21680. FIG. 4C: LPS primed PECs obtained from HIF-1α-cKO and controls were stimulated with or without NECA at time points as indicated. Cells were harvested and RNA isolated after each treatment and gene expression of Il1b and Hif1α quantified by real-time PCR. FIG. 4D: THP-1 cells were transfected with HRE-promoter luciferase construct and β-galactosidase plasmid in the presence or absence of CREB dominant negative plasmid (CREBΔ), and then primed with LPS/PMA followed by NECA. […] Luciferase activities were measured and normalized to β-galactosidase activity and normalized with controls. […] Luciferase activities were measured and normalized to Rluc activity and the normalized value with controls as indicated. […] IL-1β was measured in cell supernatant by ELISA. Data are expressed as the mean±SD from three independent experiments. […] HIF-1α, pro-caspase-1, Caspase-1 and pro-IL-1β was measured in cell supernatant by western blot Immunoblots shown are representative results from at least three independent experiments. […]

CCNC(=O)[C@H]1O[C@@H](n2cnc3c(N)ncnc32)[C@H](O)[C@@H]1O [NECA, 5′-(N-ethylcarboxamido) adenosine]
serum ALT [1]: significant elevation | whole liver transcript of Hif1a [1]: significant elevation | whole liver transcript of Il1b [1]: significant elevation | whole liver transcript of Il6 [1]: significant elevation | whole liver transcript of Nlrp3 [1]: significant elevation | whole liver transcript of tnfa [1]: reduction | HRE reporter luciferase activity [2]: resulted in HRE reporter luciferase activity

Source: patent US10624917B2, “Compositions and methods useful for treating or preventing liver diseases or disorders, and promoting weight loss” (YALE UNIVERSITY, priority 2014, dated 2020)
